Measurements reported in patent US4835287A, “Antibiotic substance” (SS Pharmaceutical Co., Ltd., priority 1987, dated 1989).
In brackets after ≈: the same amount, converted by molar mass.

Key:
[1] = system: Candida albicans NHL 4019; test: Antimicrobial activity (MIC); assay type: cell-based; details: NHL4019, read-out: Minimal Inhibitory Concentrations (MICs)
[2] = system: Bacillus subtilis ATCC 6633; test: Antimicrobial activity (MIC); assay type: cell-based; details: ATCC6633, read-out: Minimal Inhibitory Concentrations (MICs)
[3] = system: Streptococcus faecalis IFO 12964; test: Antimicrobial activity (MIC); assay type: cell-based; details: Enterococcus faecalis, IFO12964, read-out: Minimal Inhibitory Concentrations (MICs)
Solubility to solvents = assay type: physicochemical
[4] = system: Pyricularia oryzae IAM 5016; test: microbe, parasite or virus in culture; assay type: cell-based; details: IAM5016, read-out: Minimal Inhibitory Concentrations (MICs)
[5] = system: Micrococcus lysodeikticus IFO 3333; test: Antimicrobial activity (MIC); assay type: cell-based; details: Micrococcus luteus, IFO3333, read-out: Minimal Inhibitory Concentrations (MICs)
Serratia marcescens NHL = test: Antimicrobial activity (MIC); assay type: cell-based; details: read-out: Minimal Inhibitory Concentrations (MICs)
[6] = system: Pseudomonas aeruqinosa IFO 13736; test: Antimicrobial activity (MIC); assay type: cell-based; details: IFO13736, read-out: Minimal Inhibitory Concentrations (MICs)
[7] = system: Staphylococcus aureus 209P; test: Antimicrobial activity (MIC); assay type: cell-based; details: read-out: Minimal Inhibitory Concentrations (MICs)
Escherichia coli 0-1 = test: Antimicrobial activity (MIC); assay type: cell-based; details: 01, read-out: Minimal Inhibitory Concentrations (MICs)
[8] = Property as to basic, acid or neutral; assay type: physicochemical
Proteus rettgeri = test: Antimicrobial activity (MIC); assay type: cell-based; details: Providencia rettgeri, read-out: Minimal Inhibitory Concentrations (MICs)
Shigella flexneri 2b = test: Antimicrobial activity (MIC); assay type: cell-based; details: read-out: Minimal Inhibitory Concentrations (MICs)
[9] = system: Staphylococcus epidermidis ATCC 12228; test: Antimicrobial activity (MIC); assay type: cell-based; details: ATCC12228, read-out: Minimal Inhibitory Concentrations (MICs)
Sarcina lutea ATCC 9341 = test: Antimicrobial activity (MIC); assay type: cell-based; details: Micrococcus luteus, ATCC9341, read-out: Minimal Inhibitory Concentrations (MICs)
[10] = system: Klebsiella pneumoniae ATCC 10031; test: Antimicrobial activity (MIC); assay type: cell-based; details: ATCC10031, read-out: Minimal Inhibitory Concentrations (MICs)
[11] = system: Staphylococcus aureus Terajima; test: Antimicrobial activity (MIC); assay type: cell-based; details: read-out: Minimal Inhibitory Concentrations (MICs)
[12] = system: Trichophyton tonsurans IFO 5928; test: Antimicrobial activity (MIC); assay type: cell-based; details: IFO5928, read-out: Minimal Inhibitory Concentrations (MICs)
[13] = system: Aspergillus niger ATCC 9642; test: Antimicrobial activity (MIC); assay type: cell-based; details: ATCC9642, read-out: Minimal Inhibitory Concentrations (MICs)
[14] = system: Staphylococcus aureus Smith; test: Antimicrobial activity (MIC); assay type: cell-based; details: read-out: Minimal Inhibitory Concentrations (MICs)
mouse leukemia P-388 = test: Antitumor activity (life prolongation) on mouse leukemia P-388; assay type: in vivo; details: i.p. once a day ten times, CDF1 male mice, P-388 i.p.
Procedure: Curing effects of substances SS42227A and B on mouse leukemia P-388 were examined according to the following method. In the Table, the antitumor activities, or the effect of life prolongation, are expressed as the percentage of the survival time (days) of treated groups (T) per the survival time (days) for the untreated or control group (C).
CDF1 (male: supplied by Charles River Japan Inc.) were inoculated intraperitoneally with 1×10^6 P-388 cells. Then, commencing at 24 hours thereafter, substance SS42227A was intraperitoneally injected into the mice once a day and ten times in total.

Structure (SMILES) | MIC [1] | MIC [2] | MIC [3] | Solubility to solvents (Solubility to solvents; acetone) | Solubility to solvents (Solubility to solvents; chloroform) | Solubility to solvents (Solubility to solvents; diethyl ether) | Solubility to solvents (Solubility to solvents; ethyl acetate) | Solubility to solvents (Solubility to solvents; methanol) | Solubility to solvents (Solubility to solvents; n-hexane) | Solubility to solvents (Solubility to solvents; water) | MIC [4] | MIC [5] | MIC (Serratia marcescens NHL) | MIC [6] | MIC [7] | MIC (Escherichia coli 0-1) | Property as to basic, acid or neutral [8] | MIC (Proteus rettgeri) | MIC (Shigella flexneri 2b) | MIC [9] | further results
COc1cc(C(=O)OC(C(=O)NC(C(=O)NC(=CO)C(C)=O)=C2C(OC(C)=O)C(O)C3CN23)C2(C)CO2)c2cccc(C)c2c1 (stereo not shown) [SS42227B] | > 100 µg/mL | 50 µg/mL (≈ 80.2 µM) | 0.78 µg/mL (≈ 1.25 µM) | Soluble | Soluble | Sparingly soluble | Soluble | Soluble | Sparingly soluble | Sparingly soluble | > 100 µg/mL | < 0.2 µg/mL | > 100 µg/mL | > 100 µg/mL | 50 µg/mL (≈ 80.2 µM) | > 100 µg/mL | Acid | > 100 µg/mL | 0.78 µg/mL (≈ 1.25 µM) | 100 µg/mL (≈ 160 µM) | MIC (Sarcina lutea ATCC 9341): < 0.2 µg/mL; MIC [10]: 50 µg/mL (≈ 80.2 µM); MIC [11]: 50 µg/mL (≈ 80.2 µM); MIC [12]: > 100 µg/mL; MIC [13]: > 100 µg/mL; MIC [14]: 1.56 µg/mL (≈ 2.5 µM)
COc1cc(C(=O)OC(C(=O)NC(C(=O)NCC(C)=O)=C2C(OC(C)=O)C(O)C3CN23)C2(C)CO2)c2cccc(C)c2c1 (stereo not shown) [SS42227A] | > 100 µg/mL | 0.78 µg/mL (≈ 1.31 µM) | 0.78 µg/mL (≈ 1.31 µM) | Soluble | Soluble | Soluble | Soluble | Soluble | Sparingly soluble | Sparingly soluble | 100 µg/mL (≈ 168 µM) | < 0.2 µg/mL | 100 µg/mL (≈ 168 µM) | > 100 µg/mL | 6.25 µg/mL (≈ 10.5 µM) | > 100 µg/mL | Neutral | 100 µg/mL (≈ 168 µM) | < 0.2 µg/mL | 6.25 µg/mL (≈ 10.5 µM) | Antitumor Activity T/C (survival time treated/control) (mouse leukemia P-388; 2 μg/kg/day): 163%; Antitumor Activity T/C (survival time treated/control) (mouse leukemia P-388; 4 μg/kg/day): 144%; Antitumor Activity T/C (survival time treated/control) (mouse leukemia P-388; 8 μg/kg/day): 154%; Antitumor Activity T/C (survival time treated/control) (mouse leukemia P-388; 15 μg/kg/day): 192%; Antitumor Activity T/C (survival time treated/control) (mouse leukemia P-388; 15.1 μg/kg/day): 170%; Antitumor Activity T/C (survival time treated/control) (mouse leukemia P-388; 30 μg/kg/day): 211%; Antitumor Activity T/C (survival time treated/control) (mouse leukemia P-388; 31.2 μg/kg/day): 195%; Antitumor Activity T/C (survival time treated/control) (mouse leukemia P-388; 60 μg/kg/day): 77%; Antitumor Activity T/C (survival time treated/control) (mouse leukemia P-388; 62.5 μg/kg/day): 152%; MIC (Sarcina lutea ATCC 9341): < 0.2 µg/mL; MIC [10]: 3.12 µg/mL (≈ 5.24 µM); MIC [11]: 6.25 µg/mL (≈ 10.5 µM); MIC [12]: > 100 µg/mL; MIC [13]: > 100 µg/mL; MIC [14]: 1.56 µg/mL (≈ 2.62 µM)
